For 34 molecules, Emax and AC50 results are on record in US20240010641A1, “N-Linked Glycosylation Inhibitors and Methods of Using Same” (YALE UNIVERSITY, priority 2020, published 2024).

Molecules are shown by their SMILES.

Usually AC50 stands for the concentration giving half of the maximal activity seen.

The assay deals with N-linked glycosylation (OST) in CHO-ER-LucT cells. In words: CHO-ER-LucT luminescence assay for inhibition of N-linked glycosylation. The class given is cell-based. The settings on record: for Emax: 24 h, [compound's fold change-1.0 (DMSO)]/[NGI-1 fold change-1.0 (DMSO)]*100, read-out: Max activity (% NGI-1); for AC50: CHO-ER-LucT cells, 24 hrs exposure, seven-point dose dilution, luminescence. On the procedure:
The CHO-ER-LucT cells have been previously described (Contessa et al., 2010, Clinical Cancer Research, 16(12):3205-14) and are used for testing analog IC50 for inhibition of N-linked glycosylation in 96 or 384 well plate format. In these cells induction of luminescence is dependent on inhibition of glycosylation (and OST inhibition), and is determined after 24 hrs of exposure to the analog following the addition of luciferin substrate. The luminescent signal is then quantified using standard plate readers that detect luminescence (e.g., Biotek synergy). Experiments are performed over a seven-point dose dilution to generate dose response data and to identify IC50 values and maximal activity compared to controls. Data is transformed to log 10 values to generate a sigmoidal shaped dose response curve and fitted using nonlinear regression (curve fit) in GraphPad Prism7.
All HL compounds were tested in CHO-ER-LucT cells. IC50 (AC50) was estimated in following method: Concentration X is converted to logarithm (log10) to generate sigmoidal shape curve and dose response curve is generated using Nonlinear regression (curve fit) in Prism. EC50 (AC50) is calculated using log(agonist) vs response-(three parameters)] which uses standard Hill slope (=1).
Max activity: [compound's fold change−1.0 (DMSO)]/[NGI−1 fold change−1.0 (DMSO)]*100(%) (Eq. 1)

Take `CCc1cnc(NC(=O)c2cc(S(=O)(=O)N3CCOCC3)nnc2N(C)CC2CC2)s1` [Example 27, 3-((cyclopropylmethyl)(methyl)amino)-N-(5-ethylthiazol-2-yl)-6-(morpholinosulfonyl)pyridazine-4-carboxamide]: the Emax was 13.3% and the half-maximal activity concentration (AC50) came out at 115 nM.
Taken in the same sequence, the figures for `CCc1cnc(NC(=O)c2cc(S(=O)(=O)N(C)C)ccc2N(CC)CC)s1` [Comparator, reference compound] were 46.8% and 3360 nM.
In the same order, the values of `CCc1cnc(NC(=O)c2cc(S(=O)(=O)CC3CC3)ccc2N(C)C2CCCC2)s1` are 89.9% and 1530 nM.
For the molecule `CCc1cnc(NC(=O)c2cc(S(=O)(=O)N3CCOCC3)ccc2N2CCC(F)(F)C2)s1` [Example 36, 2-(3,3-difluoropyrrolidin-1-yl)-N-(5-ethylthiazol-2-yl)-5-(morpholinosulfonyl)benzamide], the Emax came out at 137% and the AC50 came to 591 nM.
For the molecule `CCc1cnc(NC(=O)c2nc(S(=O)(=O)N3CCOCC3)ccc2N(C)CC2CC2)s1` [Example 28, 3-((cyclopropylmethyl)(methyl)amino)-N-(5-ethylthiazol-2-yl)-6-(morpholinosulfonyl)picolinamide], the Emax turned out to be 33.3% and the AC50 was determined as 7920 nM.
Taken in the same sequence, the figures for `CCc1cnc(NC(=O)c2cc(S(=O)(=O)N3CCOCC3)ccc2N(C)C(C)C)s1` [Example 5, N-(5-ethylthiazol-2-yl)-2-(isopropyl(methyl)amino)-5-(morpholinosulfonyl)benzamide] were 162% and 270 nM.
Consider `Cc1nc(NC(=O)c2cc(S(=O)(=O)N(C)C)cc(F)c2N2CCCC2)sc1C` [Example 29, 5-(N,N-dimethylsulfamoyl)-N-(4,5-dimethylthiazol-2-yl)-3-fluoro-2-(pyrrolidin-1-yl)benzamide], for which the Emax turned out to be 62.6% and the concentration at half-maximal activity (AC50) amounted to 4990 nM.
Taken in the same sequence, the figures for `Cc1nc(NC(=O)c2cc(S(=O)(=O)N3CCOCC3)c(F)cc2N(C)CC2CC2)sc1C` [Example 31, 2-((cyclopropylmethyl)(methyl)amino)-N-(4,5-dimethylthiazol-2-yl)-4-fluoro-5-(morpholinosulfonyl)benzamide] were 61.2% and 431 nM.
`CCc1cnc(NC(=O)c2cc(S(=O)(=O)N(C)C)ccc2N(C)C2CC2)s1`: the Emax turned out to be 86.8% and the half-maximal activity concentration (AC50) stood at 1190 nM.
On to `CCc1cnc(NC(=O)c2cc(S(=O)(=O)N(C)C)cnc2N(C)C2CCCC2)s1` [Example 25, 2-(cyclopentyl(methyl)amino)-5-(N,N-dimethylsulfamoyl)-N-(5-ethylthiazol-2-yl)nicotinamide], for which the Emax stood at 108% and the AC50 stood at 309 nM.
In the same order, the values of `CCc1cnc(NC(=O)c2cc(S(=O)(=O)N3CCOCC3)ccc2N(C)C2CC2)s1` are 129% and 2500 nM.
In the same order, the values of `CCc1cnc(NC(=O)c2cc(S(=O)(=O)N(C)C)cnc2N(C)CC2CC2)s1` [Example 22, 2-((cyclopropylmethyl)(methyl)amino)-5-(N,N-dimethylsulfamoyl)-N-(5-ethylthiazol-2-yl)nicotinamide] are 126% and 572 nM.
Regarding `Cc1cnc(NC(=O)c2cc(S(=O)(=O)N(C)C)ccc2N(C)C2CCCC2)s1` [Example 17, 2-(cyclopentyl(methyl)amino)-5-(N,N-dimethylsulfamoyl)-N-(5-methylthiazol-2-yl)benzamide], the Emax came out at 102% and the concentration at half-maximal activity (AC50) was determined as 361 nM.
Taken in the same sequence, the figures for `Cc1nc(NC(=O)c2cc(S(=O)(=O)N(C)C)cnc2N(C)C2CCCC2)sc1C` [Example 21, 2-(cyclopentyl(methyl)amino)-5-(N,N-dimethylsulfamoyl)-N-(4,5-dimethylthiazol-2-yl)nicotinamide] were 101% and 970 nM.
In the same order, the values of `CN(CC1CC1)c1ncc(S(=O)(=O)N(C)C)cc1C(=O)Nc1nc2c(s1)COCC2` [Example 24, 2-((cyclopropylmethyl)(methyl)amino)-N-(6,7-dihydro-4H-pyrano[4,3-d]thiazol-2-yl)-5-(N,N-dimethylsulfamoyl)nicotinamide] are 43% and 17300 nM.
Taken in the same sequence, the figures for `Cc1nc(NC(=O)c2cc(S(=O)(=O)N3CCOCC3)ccc2N(C)C2CCCC2)sc1C` [Example 9, 2-(cyclopentyl(methyl)amino)-N-(4,5-dimethylthiazol-2-yl)-5-(morpholinosulfonyl)benzamide] were 83.5% and 165 nM.
Turning to `Cc1cnc(NC(=O)c2cc(S(=O)(=O)N(C)C)cc(F)c2N2CCCC2)s1`, the Emax stood at 114% and the concentration at half-maximal activity (AC50) was 36900 nM.
Regarding `Cc1nc(NC(=O)c2cc(S(=O)(=O)N(C)C)cnc2N(C)CC2CC2)sc1C` [Example 23, 2-((cyclopropylmethyl)(methyl)amino)-5-(N,N-dimethylsulfamoyl)-N-(4,5-dimethylthiazol-2-yl)nicotinamide], the Emax is 59% and the concentration at half-maximal activity (AC50) worked out at 863 nM.
`Cc1sc(NC(=O)c2cc(S(=O)(=O)N3CCOCC3)ccc2N(C)CC2CC2)nc1-c1ccccc1` [Example 19, 2-((cyclopropylmethyl)(methyl)amino)-N-(5-methyl-4-phenylthiazol-2-yl)-5-(morpholinosulfonyl)benzamide]: the Emax amounted to 66.2% and the concentration at half-maximal activity (AC50) worked out at 563 nM.
Take `Cc1ccc(NC(=O)c2cc(S(=O)(=O)N(C)C)ccc2N2CCC(F)(F)C2)cc1` [Example 33, 2-(3,3-difluoropyrrolidin-1-yl)-5-(N,N-dimethylsulfamoyl)-N-(p-tolyl)benzamide]: the Emax is 67.5% and the AC50 is 5840 nM.
In the same order, the values of `CCc1cnc(NC(=O)c2cc(S(=O)(=O)N(C)Cc3ccccc3)ccc2N(C)CC2CC2)s1` [Example 18, 5-(N-benzyl-N-methylsulfamoyl)-2-((cyclopropylmethyl)(methyl)amino)-N-(5-ethylthiazol-2-yl)benzamide] are 71.2% and 266 nM.
In the same order, the values of `CCc1cnc(NC(=O)c2cc(S(=O)(=O)N(C)C)ccc2N(C)C(C)C)s1` [Example 14, 5-(N,N-dimethylsulfamoyl)-N-(5-ethylthiazol-2-yl)-2-(isopropyl(methyl)amino)benzamide] are 128% and 372 nM.
In the same order, the values of `CCc1cnc(NC(=O)c2cc(S(=O)(=O)N3CCOCC3)cnc2N(C)CC2CC2)s1` [Example 26, 2-((cyclopropylmethyl)(methyl)amino)-N-(5-ethylthiazol-2-yl)-5-(morpholinosulfonyl)nicotinamide] are 104% and 851 nM.
For `Cc1nc(NC(=O)c2cc(S(=O)(=O)N(C)C)ccc2N(C)C2CCCC2)sc1C` [Example 1, 2-(cyclopentyl(methyl)amino)-5-(N,N-dimethylsulfamoyl)-N-(4,5-dimethylthiazol-2-yl)benzamide], the Emax is 81% and the AC50 worked out at 376 nM.
On to `CCc1cnc(NC(=O)c2cc(S(=O)(=O)CC3CC3)ccc2N(C)CC2CC2)s1`, for which the Emax turned out to be 88.3% and the AC50 was found to be 2590 nM.
Take `CCc1cnc(NC(=O)c2cc(S(=O)(=O)N(C)C)ccc2N(C)CC)s1` [Example 13, 5-(N,N-dimethylsulfamoyl)-2-(ethyl(methyl)amino)-N-(5-ethylthiazol-2-yl)benzamide]: the Emax is 114% and the concentration at half-maximal activity (AC50) amounted to 294 nM.
Take `CCc1cnc(NC(=O)c2cc(S(=O)(=O)N(C)C)cc(F)c2N2CCCC2)s1`: the Emax turned out to be 97.3% and the AC50 was 3760 nM.
Taken in the same sequence, the figures for `C=CCN(C)c1ccc(S(=O)(=O)N(C)C)cc1C(=O)Nc1ncc(CC)s1` were 108% and 1100 nM.
Turning to `Cc1cnc(NC(=O)c2cc(S(=O)(=O)N(C)C)cnc2N(C)CC2CC2)s1`, the Emax amounted to 48.3% and the half-maximal activity concentration (AC50) is 3020 nM.
In the same order, the values of `CN(c1ccc(S(=O)(=O)N(C)C)cc1C(=O)Nc1nc2c(s1)COCC2)C1CCCC1` are 46.2% and 1020 nM.
Regarding `CCc1cnc(NC(=O)c2cc(S(=O)(=O)N(C)C)ccc2N(C)CC2CCC2)s1` [Example 16, 2-((cyclobutylmethyl)(methyl)amino)-5-(N,N-dimethylsulfamoyl)-N-(5-ethylthiazol-2-yl)benzamide], the Emax worked out at 82.2% and the concentration at half-maximal activity (AC50) stood at 744 nM.
As to `CCc1cnc(NC(=O)c2cc(S(=O)(=O)N(C)C)ccc2N(C)C2CCCCC2)s1` [Example 11, 2-(cyclohexyl(methyl)amino)-5-(N,N-dimethylsulfamoyl)-N-(5-ethylthiazol-2-yl)benzamide], the Emax was 52.9% and the half-maximal activity concentration (AC50) was found to be 248 nM.
As for `CCc1cnc(NC(=O)c2cc(S(=O)(=O)N(C)C)ccc2N2CCC(F)(F)C2)s1` [Example 37, 2-(3,3-difluoropyrrolidin-1-yl)-5-(N,N-dimethylsulfamoyl)-N-(5-ethylthiazol-2-yl)benzamide], the Emax was 126% and the half-maximal activity concentration (AC50) was determined as 565 nM.
As for `Cc1nc(NC(=O)c2cc(S(=O)(=O)N3CCOCC3)ccc2N2CCC(F)(F)C2)sc1C` [Example 38, 2-(3,3-difluoropyrrolidin-1-yl)-N-(4,5-dimethylthiazol-2-yl)-5-(morpholinosulfonyl)benzamide], the Emax was found to be 42.8% and the AC50 is 748 nM.
